Measured values: patent US6794169B2, “UDP-N-acetylglucosamine: galactose-β1,3-N-acetylgalactosamine-α-R / (GlcNAc to GalNAc) β1,6-N-acetylglucosaminyltransferase, C2GnT3” (Glycozym ApS, priority 1999, dated 2004)

What was measured:
C2GnT3 = target: T1, C2GnT3 (Homo sapiens, UniProt Q9P109); test: GlcNAc-transferase activity of recombinant soluble C2GnT3 with acceptor/donor substrates; assay type: biochemical; conditions: for Substrate specificity, C2GnT3 activity: partially purified media of infected High Five cells, background subtracted; for C2GnT3 activity with acceptor substrate (in words): as acceptor substrate; for C2GnT3 activity with donor substrate (in words): as donor substrate, data not shown
T1 construct: An expression vector construct designed to encode amino acid residues 39-453 of C2GnT3; gp67 secretion signal of vector pAcGP67A (N); made in house; host or cells: Sf9 insect cells (baculovirus; culture supernatant); High Five cells for kinetic properties (partially purified)
T1 sequence (Q9P109 39-453): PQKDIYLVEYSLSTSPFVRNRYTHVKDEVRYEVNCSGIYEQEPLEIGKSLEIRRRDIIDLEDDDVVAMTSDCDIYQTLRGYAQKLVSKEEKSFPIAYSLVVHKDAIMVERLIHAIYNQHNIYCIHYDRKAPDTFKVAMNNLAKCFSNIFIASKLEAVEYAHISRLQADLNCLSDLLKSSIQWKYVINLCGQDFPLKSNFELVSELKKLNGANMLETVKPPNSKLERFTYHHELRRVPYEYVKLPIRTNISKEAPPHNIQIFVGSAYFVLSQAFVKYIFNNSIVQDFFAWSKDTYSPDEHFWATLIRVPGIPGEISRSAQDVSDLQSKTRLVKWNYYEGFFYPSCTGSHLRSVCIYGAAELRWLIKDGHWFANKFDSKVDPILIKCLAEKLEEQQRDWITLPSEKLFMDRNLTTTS
Description: with BamH1 and EcoRI restriction sites, respectively (FIG. 2). The PCR product was cloned between the BamHI and EcoRI sites of pAcGP67A (PharMingen), and the insert was fully sequenced. pAcGP67-C2GnT3-sol was co-transfected with Baculo-Gold™ DNA (PharMingen) as described previously (23). Recombinant Baculovirus was obtained after two successive amplifications in Sf9 cells grown in serum-containing medium, and titers of virus were estimated by titration in 24-well plates with monitoring of enzyme activities.
(§1) Controls included the pAcGP67-GalNAc-T3-sol (24). The kinetic properties were determined with partially purified enzymes expressed in High Five™ cells. Partial purification was performed by consecutive chromatography on Amberlite IRA-95, DEAE-Sephacryl and SP-Sepharose essentially as described (25; 25).
(§2) Standard assays were performed using culture supernatant from infected cells in 50 μl reaction mixtures containing 100 mM MES (pH 6.5), 0.1% Nonidet P-40, 150 μM UDP-[^14C]-GlcNAc (2,000 cpm/nmol) (Amersham Pharmacia Biotech), and the indicated concentrations of acceptor substrates (Sigma and Toronto Research Laboratories Ltd., see Table I for structures). Reaction products were quantified by chromatography on Dowex AG1-X8.

C2GnT1 = target: T2, C2GnT1 (Homo sapiens, UniProt Q02742); test: GlcNAc-transferase activity of C2GnT1 with acceptor substrates; assay type: biochemical
T2 sequence (Q02742 1-428): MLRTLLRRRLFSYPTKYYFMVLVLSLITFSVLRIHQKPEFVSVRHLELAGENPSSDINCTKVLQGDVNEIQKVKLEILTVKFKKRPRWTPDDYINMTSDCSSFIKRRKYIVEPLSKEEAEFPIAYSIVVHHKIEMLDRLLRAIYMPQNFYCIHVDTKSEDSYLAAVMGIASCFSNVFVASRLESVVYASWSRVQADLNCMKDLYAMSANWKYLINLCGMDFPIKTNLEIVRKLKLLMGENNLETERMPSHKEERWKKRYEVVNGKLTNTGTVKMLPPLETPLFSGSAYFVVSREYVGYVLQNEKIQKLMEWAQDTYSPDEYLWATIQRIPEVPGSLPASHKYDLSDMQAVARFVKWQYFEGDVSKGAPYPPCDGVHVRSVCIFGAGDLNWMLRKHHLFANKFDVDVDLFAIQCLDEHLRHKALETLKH
Procedure: as §1, §2

Compound	Substrate specificity, C2GnT3 activity (C2GnT3; acceptor substrate 2 mM) [nmol/h/mg]	Substrate specificity, C2GnT3 activity (C2GnT3; acceptor substrate 10 mM) [nmol/h/mg]	C2GnT3 activity with acceptor substrate (in words) (C2GnT3)	Substrate specificity, C2GnT1 activity (C2GnT1; acceptor substrate 2 mM) [nmol/h/mg]	Substrate specificity, C2GnT1 activity (C2GnT1; acceptor substrate 10 mM) [nmol/h/mg]	C2GnT3 activity with donor substrate (in words) (C2GnT3)	Substrate inhibition of C2GnT3 enzyme activity (C2GnT3; high acceptor concentrations up to 20 mM)
CC(=O)N[C@H]1[C@H](O[C@H]2[C@@H](O)[C@@H](CO)O[C@@H](O[C@H]3[C@H](O)[C@@H](O)C(O)O[C@@H]3CO)[C@@H]2O)O[C@H](CO)[C@@H](O[C@@H]2O[C@H](CO)[C@H](O)[C@H](O)[C@H]2O)[C@@H]1O (mixture of isomers) [lacto-N-neo-tetraose]	<0.1	<0.1	no activity	<0.1	<0.1	–	–
CC(=O)N[C@H]1[C@@H](Oc2ccc([N+](=O)[O-])cc2)O[C@H](CO)[C@H](O)[C@@H]1O [α-D-GalNAc-1-p-Nph]	<0.1	<0.1	no activity	<0.1	<0.1	–	–
CC(=O)N[C@H]1C(O)O[C@H](CO)[C@H](O)[C@@H]1O (stereo partly drawn) [D-GalNAc]	<0.1	<0.1	–	<0.1	<0.1	–	–
CC(=O)NC1C(OC2C(O)C(CO)OC(Oc3ccc([N+](=O)[O-])cc3)C2NC(C)=O)OC(CO)C(O)C1O [β-D-GlcNAc-(1-3)-α-D-GalNAc-1-p-Nph]	<0.1	<0.1	–	<0.1	<0.1	–	–

Other lines, results leading:

Substrate specificity, C2GnT3 activity (C2GnT3; acceptor substrate 2 mM) [nmol/h/mg]	Substrate specificity, C2GnT3 activity (C2GnT3; acceptor substrate 10 mM) [nmol/h/mg]	C2GnT3 activity with acceptor substrate (in words) (C2GnT3)	Substrate specificity, C2GnT1 activity (C2GnT1; acceptor substrate 2 mM) [nmol/h/mg]	Substrate specificity, C2GnT1 activity (C2GnT1; acceptor substrate 10 mM) [nmol/h/mg]	C2GnT3 activity with donor substrate (in words) (C2GnT3)	Substrate inhibition of C2GnT3 enzyme activity (C2GnT3; high acceptor concentrations up to 20 mM)	Compound
<0.1	<0.1	no activity	<0.1	<0.1	–	–	CO[C@@H]1O[C@H](CO)[C@H](O)[C@H](O[C@@H]2O[C@H](CO)[C@@H](O)[C@H](O)[C@H]2NC(C)=O)[C@H]1O [β-D-GlcNAc-(1-3)-β-D-Gal-1-Me]
–	–	–	–	–	no activity	–	CC(=O)N[C@H]1[C@@H](OP(=O)(O)OP(=O)(O)OC[C@H]2O[C@@H](n3ccc(=O)[nH]c3=O)[C@H](O)[C@@H]2O)O[C@H](CO)[C@H](O)[C@@H]1O [UDP-GalNAc]
18.1	26.1	–	16.2	23.6	–	No substrate inhibition	CC(=O)N[C@H]1[C@@H](Oc2ccc([N+](=O)[O-])cc2)O[C@H](CO)[C@H](O)[C@@H]1O[C@@H]1O[C@H](CO)[C@H](O)[C@H](O)[C@H]1O [β-D-Gal-(1-3)-α-D-GalNAc-1-p-Nph]
6.6	14.3	–	9.6	19.0	–	–	CC(=O)N[C@@H]1[C@@H](O[C@@H]2O[C@H](CO)[C@H](O)[C@H](O)[C@H]2O)[C@@H](O)[C@@H](CO)O[C@@H]1O [β-D-Gal-(1-3)-α-D-GalNAc]
–	–	–	–	–	strict donor substrate specificity	–	CC(=O)N[C@H]1[C@@H](OP(=O)(O)OP(=O)(O)OC[C@H]2O[C@@H](n3ccc(=O)[nH]c3=O)[C@H](O)[C@@H]2O)O[C@H](CO)[C@@H](O)[C@@H]1O [UDP-GlcNAc, UDP-N-acetylglucosamine]
